Data: patent US11033577B2, “Polymer conjugate of hexa-coordinated platinum complex” (priority 2015, dated 2021)

Experiments:
[1] = tested on: Human stomach cancer 4-1ST; experiment: Antitumor Test 3, human stomach cancer 4-1ST transplanted mouse; type: in vivo, BALB/cA-nu/nu mouse; conditions: caudal vein
Excerpt: Human stomach cancer 4-1ST was subcultured subcutaneously in a BALB/cA-nu/nu mouse (hereinafter, nude mouse). Human stomach cancer 4-1ST was obtained from the Central Institute for Experimental Animals.
(§1) Human stomach cancer 4-1ST was collected subcutaneously from a nude mouse and was cut into blocks each measuring about 3 mm on each side. The tumor blocks thus obtained were transplanted subcutaneously on the dorsal side of nude mice using a trocar. On the 20th day after transplantation, where the average tumor volume had reached about 100 to 200 mm^3, various drugs were administered through the caudal vein. The use and dose (in terms of drug) of the various administered drugs are as follows. In regard to the Example 7 compound, the compound was dissolved in a 5% glucose injectable solution, and the solution was administered once at a dose of 15 mg/kg or 7.5 mg/kg. In regard to the Example 16 compound, the compound was dissolved in a 5% glucose injectable solution, and the solution was administered once at a dose of 30 mg/kg or 15 mg/kg. As a control drug, l-OHP was administered once at a dose of 18 mg/kg or 9 mg/kg, and cisplatin was administered once at a dose of 10 mg/kg. Regarding the amounts of administration of l-OHP and cisplatin and the high amounts of administration of the various Example compounds, the maximum tolerable doses (MTD doses) were employed for all of the compounds. After the administration, the major axis (L) and the minor axis (W) of the tumor were measured over time using calipers, and the tumor volume (L×W×W×0.5) was calculated. The test was performed by employing four animals per group for all of a non-administered group as well as various drug-administered groups. During the period from the initiation of administration to the 21st day after administration, the relative tumor volume (T/C (%)) of each drug-administered group based on the relative tumor volume of a non-drug-administered group as 100 was calculated by the following formula as an index for the antitumor effect. T/C(%)=Relative tumor volume of administered group/relative tumor volume of non-administered group×100 Formula: […]

[2] = Maximum tolerable dose (MTD dose) in nude mice; type: in vivo, BALB/cA-nu/nu mouse; conditions: administered once, caudal vein, dose in terms of drug
Protocol: Human stomach cancer 4-1ST was collected subcutaneously from a nude mouse and was finely cut into blocks each measuring about 3 mm on each side. The tumor blocks thus obtained were subcutaneously transplanted into the dorsal side of nude mice using a trocar. On the 15th day after transplantation, where the average tumor volume had reached about 100 to 200 mm^3, various drugs were administered through the caudal vein. The use and dose (in terms of drug) of the various administered drugs are as follows. In regard to the Example 1 compound, the compound was dissolved in a 5% glucose injectable solution, and the solution was administered once at a dose of 25 mg/kg or 12.5 mg/kg. In regard to the Example 2 compound, the compound was dissolved in a 5% glucose injectable solution, and the solution was administered once at a dose of 25 mg/kg or 12.5 mg/kg. In regard to the Example 3 compound, the compound was dissolved in a 5% glucose injectable solution, and the solution was administered once at a dose of 20 mg/kg or 10 mg/kg. In regard to the Example 4 compound, the compound was dissolved in a 5% glucose injectable solution, and the solution was administered once at a dose of 20 mg/kg or 10 mg/kg. In regard to the Example 5 compound, the compound was dissolved in a 5% glucose injectable solution, and the solution was administered once at a dose of 20 mg/kg or 10 mg/kg. As a control drug, l-OHP was administered once at a dose of 20 mg/kg, and cisplatin was administered once at a dose of 10 mg/kg. Regarding the amounts of administration of l-OHP and cisplatin and the high amounts of administration of the various Example compounds, the maximum tolerable doses (MTD doses) were employed for all of the compounds. After the administration, the major axis (L) and the minor axis (W) of the tumor were measured over time using calipers, and the tumor volume (L×W×W×0.5) was calculated. The test was performed by employing four animals per group for all of a non-administered group as well as various drug-administered groups. During the period from the initiation of administration to the 21st day after administration, the relative tumor volume (T/C (%)) of each drug-administered group based on the relative tumor volume of a non-drug-administered group as 100 was calculated by the following formula as an index for the antitumor effect. T/C(%)=Relative tumor volume of administered group/relative tumor volume of non-administered group×100 Formula: […]
as §1, with “the 17th” for “the 20th”, “Example 11” for “Example 7”, “Example 12” for “Example 16”, “18” for “18 mg/kg or 9”, “groups.” for “groups. During the period from the initiation of administration to the 21st day after administration, the relative tumor volume (T/C (%)) of each drug-administered group based on the relative tumor volume of a non-drug-administered group as 100 was calculated by the following formula as an index for the antitumor effect. T/C(%)=Relative tumor volume of administered group/relative tumor volume of non-administered group×100 Formula:”

SMILES: O=C1[O][Pt]2([NH][C@@H]3CCCC[C@H]3[NH]2)[O]C1=O [l-OHP, oxaliplatin]
- T/C (%) in various numbers of days after administration ([1]; 9 mg/kg once, day 0): 100%
- T/C (%) in various numbers of days after administration ([1]; 9 mg/kg once, day 4): 81%
- T/C (%) in various numbers of days after administration ([1]; 9 mg/kg once, day 7): 74%
- T/C (%) in various numbers of days after administration ([1]; 9 mg/kg once, day 11): 75%
- T/C (%) in various numbers of days after administration ([1]; 9 mg/kg once, day 14): 79%
- T/C (%) in various numbers of days after administration ([1]; 9 mg/kg once, day 18): 77%
- T/C (%) in various numbers of days after administration ([1]; 9 mg/kg once, day 21): 87%
- T/C (%) in various numbers of days after administration ([1]; 18 mg/kg once, day 0): 100%
- T/C (%) in various numbers of days after administration ([1]; 18 mg/kg once, day 4): 60%
- T/C (%) in various numbers of days after administration ([1]; 18 mg/kg once, day 7): 37%
- T/C (%) in various numbers of days after administration ([1]; 18 mg/kg once, day 11): 36%
- T/C (%) in various numbers of days after administration ([1]; 18 mg/kg once, day 14): 47%
- T/C (%) in various numbers of days after administration ([1]; 18 mg/kg once, day 18): 50%
- T/C (%) in various numbers of days after administration ([1]; 18 mg/kg once, day 21): 52%
- maximum tolerable dose (MTD dose) ([2]; Antitumor Test 1): 20 mg/kg
- maximum tolerable dose (MTD dose) ([2]; Antitumor Test 2): 18 mg/kg
- maximum tolerable dose (MTD dose) ([2]; Antitumor Test 3): 18 mg/kg

SMILES: N.N.[Cl][Pt][Cl] [Cisplatin, cisplatin]
- T/C (%) in various numbers of days after administration ([1]; 10 mg/kg once, day 0): 100%
- T/C (%) in various numbers of days after administration ([1]; 10 mg/kg once, day 4): 47%
- T/C (%) in various numbers of days after administration ([1]; 10 mg/kg once, day 7): 22%
- T/C (%) in various numbers of days after administration ([1]; 10 mg/kg once, day 11): 17%
- T/C (%) in various numbers of days after administration ([1]; 10 mg/kg once, day 14): 16%
- T/C (%) in various numbers of days after administration ([1]; 10 mg/kg once, day 18): 20%
- T/C (%) in various numbers of days after administration ([1]; 10 mg/kg once, day 21): 19%
- maximum tolerable dose (MTD dose) ([2]; Antitumor Test 1): 10 mg/kg
- maximum tolerable dose (MTD dose) ([2]; Antitumor Test 2): 10 mg/kg
- maximum tolerable dose (MTD dose) ([2]; Antitumor Test 3): 10 mg/kg
